Patent publication US20220348595A1, “COMPOUNDS AND METHODS FOR THE TARGETED DEGRADATION OF ESTROGEN RECEPTORS” (Endotarget Inc., priority 2021, published 2022)
pIC50: −log10 of the molar value.

Key:
Type in all cases: cell-based
[1] = biological target: T1, ER (Homo sapiens, UniProt P03372); experiment: ER antagonism (T47D ERE luciferase), T47d-kb-Luc cells; settings: read-out: IC50 (ER antagonistm)
T1 construct: endogenous in cells; host or cells: T47d-kb-Luc (T47D stably transfected with a luciferase reporter gene only)
T1 sequence (P03372 1-595): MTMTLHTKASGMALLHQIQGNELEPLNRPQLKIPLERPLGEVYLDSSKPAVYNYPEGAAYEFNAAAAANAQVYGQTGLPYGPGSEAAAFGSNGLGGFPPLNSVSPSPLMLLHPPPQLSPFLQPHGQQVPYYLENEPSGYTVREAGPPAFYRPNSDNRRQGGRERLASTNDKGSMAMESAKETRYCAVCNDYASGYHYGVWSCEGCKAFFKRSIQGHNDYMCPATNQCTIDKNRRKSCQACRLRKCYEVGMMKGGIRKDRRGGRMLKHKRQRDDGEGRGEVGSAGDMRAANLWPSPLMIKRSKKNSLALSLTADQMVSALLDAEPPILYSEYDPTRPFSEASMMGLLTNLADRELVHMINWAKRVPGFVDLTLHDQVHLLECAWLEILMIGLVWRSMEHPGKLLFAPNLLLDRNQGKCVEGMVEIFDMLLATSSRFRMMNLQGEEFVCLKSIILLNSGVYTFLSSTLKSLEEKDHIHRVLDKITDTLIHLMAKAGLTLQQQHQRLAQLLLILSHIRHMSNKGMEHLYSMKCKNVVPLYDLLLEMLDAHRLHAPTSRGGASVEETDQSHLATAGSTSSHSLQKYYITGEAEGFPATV
Procedure, shortened: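 Five sample concentrations, each in quadruplicate and repeated in at least three experiments, were tested for blocking of estradiol activity. Values were expressed relative to the estradiol control. The cell system was the T47d-kb-Luc stable breast cancer line.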

[2] = tested on: MCF-7 breast cancer cells; experiment: MCF-7 proliferation / cell viability assay; settings: Homo sapiens, MCF7; MCF-7 proliferation with 0.1 nM 17-beta estradiol; read-out: IC50 (anti-proliferation)
Procedure, shortened: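 Survival ratio, with vehicle (DMSO) as 100%, was derived from Coulter-counted viable cell numbers. Cells were grown in 5% FBS DMEM and dosed for 5 days across six concentrations between 10^−10 M and 10^−5 M.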

[3] = biological target: T2, ERα (Homo sapiens, UniProt P03372); experiment: ER degradation in MCF-7 cells (Western blot); settings: for DC50: ER degradation, 24 hours; for Dmax: MCF7, Maximal ER degradation, read-out: Dmax
T2 construct: endogenous in cells; host or cells: MCF-7
T2 sequence (P03372 1-595): T1 sequence (P03372 1-595)
Procedure, shortened: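 ERα levels assessed by Western blot (50 μg lysate protein, infrared scanner) after 24-hour exposure of MCF-7 cells to varied compound concentrations. Values reported as DC50, the concentration halving ER expression, and Dmax, the maximal ER reduction achieved across tested concentrations.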

Structure (SMILES)	pIC50 [1]	pIC50 [2]	DC50 [3] [µM]	Dmax [3] [%]
CC/C(=C(/c1ccc(B(O)O)cc1)c1ccc(N2CCN(CCN3CCN(c4ccc5c(c4)C(=O)N(C4CCC(=O)NC4=O)C5=O)CC3)CC2)cc1)c1ccccc1 (stereo not shown) [Compound 60, (E)-(4-(1-(4-(4-(2-(4-(2-(2,6-dioxopiperidin-3-yl)-1,3-dioxoisoindolin-5-yl)piperazin-1-yl)ethyl)piperazin-1-yl)phenyl)-2-phenylbut-1-en-1-yl)phenyl)boronic acid]	7.30 to 8.00	7.30 to 8.00	0.01 to 0.05	> 90
CC/C(=C(\c1ccc(B(O)O)cc1)c1ccc(N2CCN(CCN3CCN(c4ccc5c(c4)CN(C4CCC(=O)NC4=O)C5=O)CC3)CC2)cc1)c1ccccc1 (stereo not shown) [Compound 61, (Z)-(4-(1-(4-(4-(2-(4-(2-(2,6-dioxopiperidin-3-yl)-1-oxoisoindolin-5-yl)piperazin-1-yl)ethyl)piperazin-1-yl)phenyl)-2-phenylbut-1-en-1-yl)phenyl)boronic acid]	7.30 to 8.00	7.30 to 8.00	< 0.01	> 90
CC/C(=C(/c1ccc(B(O)O)cc1)c1ccc(N2CCN(CCN3CCN(c4ccc5c(c4)CN(C4CCC(=O)NC4=O)C5=O)CC3)CC2)cc1)c1ccccc1 (stereo not shown) [Compound 62, (E)-(4-(1-(4-(4-(2-(4-(2-(2,6-dioxopiperidin-3-yl)-1-oxoisoindolin-5-yl)piperazin-1-yl)ethyl)piperazin-1-yl)phenyl)-2-phenylbut-1-en-1-yl)phenyl)boronic acid]	7.30 to 8.00	7.30 to 8.00	< 0.01	> 90
CC/C(=C(\c1ccc(B(O)O)cc1)c1ccc(N2CCC(CCN3CCN(c4ccc5c(c4)C(=O)N(C4CCC(=O)NC4=O)C5=O)CC3)CC2)cc1)c1ccccc1 (stereo not shown) [Compound 63, (Z)-(4-(1-(4-(4-(2-(4-(2-(2,6-dioxopiperidin-3-yl)-1,3-dioxoisoindolin-5-yl)piperazin-1-yl)ethyl)piperidin-1-yl)phenyl)-2-phenylbut-1-en-1-yl)phenyl)boronic acid]	7.30 to 8.00	7.30 to 8.00	0.01 to 0.05	> 90
CC/C(=C(/c1ccc(B(O)O)cc1)c1ccc(N2CCC(CCN3CCN(c4ccc5c(c4)C(=O)N(C4CCC(=O)NC4=O)C5=O)CC3)CC2)cc1)c1ccccc1 (stereo not shown) [Compound 64]	7.30 to 8.00	7.30 to 8.00	0.01 to 0.05	> 90
CC/C(=C(\c1ccc(B(O)O)cc1)c1ccc(N2CCN(CCC3CCN(c4ccc5c(c4)C(=O)N(C4CCC(=O)NC4=O)C5=O)CC3)CC2)cc1)c1ccccc1 (stereo not shown) [Compound 65, (Z)-(4-(1-(4-(4-(2-(1-(2-(2,6-dioxopiperidin-3-yl)-1,3-dioxoisoindolin-5-yl)piperidin-4-yl)ethyl)piperazin-1-yl)phenyl)-2-phenylbut-1-en-1-yl)phenyl)boronic acid]	> 8.00	7.30 to 8.00	< 0.01	> 90
CC/C(=C(/c1ccc(B(O)O)cc1)c1ccc(N2CCN(CCC3CCN(c4ccc5c(c4)C(=O)N(C4CCC(=O)NC4=O)C5=O)CC3)CC2)cc1)c1ccccc1 (stereo not shown) [Compound 66, (E)-(4-(1-(4-(4-(2-(1-(2-(2,6-dioxopiperidin-3-yl)-1,3-dioxoisoindolin-5-yl)piperidin-4-yl)ethyl)piperazin-1-yl)phenyl)-2-phenylbut-1-en-1-yl)phenyl)boronic acid]	7.30 to 8.00	7.30 to 8.00	< 0.01	> 90
CC/C(=C(\c1ccc(B(O)O)cc1)c1ccc(N2CCN(CCC3CCN(c4ccc5c(c4)CN(C4CCC(=O)NC4=O)C5=O)CC3)CC2)cc1)c1ccccc1 (stereo not shown) [Compound 67, (Z)-(4-(1-(4-(4-(2-(1-(2-(2,6-dioxopiperidin-3-yl)-1-oxoisoindolin-5-yl)piperidin-4-yl)ethyl)piperazin-1-yl)phenyl)-2-phenylbut-1-en-1-yl)phenyl)boronic acid]	> 8.00	> 8.00	< 0.01	> 90
CC/C(=C(/c1ccc(B(O)O)cc1)c1ccc(N2CCN(CCC3CCN(c4ccc5c(c4)CN(C4CCC(=O)NC4=O)C5=O)CC3)CC2)cc1)c1ccccc1 (stereo not shown) [Compound 68, (E)-(4-(1-(4-(4-(2-(1-(2-(2,6-dioxopiperidin-3-yl)-1-oxoisoindolin-5-yl)piperidin-4-yl)ethyl)piperazin-1-yl)phenyl)-2-phenylbut-1-en-1-yl)phenyl)boronic acid]	> 8.00	> 8.00	< 0.01	> 90
CC/C(=C(/c1ccc(OCCN2CCN(CC3CCN(c4ccc5c(c4)CN([C@@H]4CCC(=O)NC4=O)C5=O)CC3)CC2)cc1)c1ccc(B(O)O)cc1)c1ccccc1 [Compound 70]	> 8.00	> 8.00	< 0.01	> 90
CC/C(=C(\c1ccc(OCCN2CCN(CC3CCN(c4ccc5c(c4)CN([C@H]4CCC(=O)NC4=O)C5=O)CC3)CC2)cc1)c1ccc(B(O)O)cc1)c1ccccc1 [Compound 71]	> 8.00	> 8.00	< 0.01	> 90
CC/C(=C(\c1ccc(OCCN2CCN(CC3CCN(c4ccc5c(c4)CN([C@@H]4CCC(=O)NC4=O)C5=O)CC3)CC2)cc1)c1ccc(B(O)O)cc1)c1ccccc1 [Compound 72]	> 8.00	> 8.00	< 0.01	> 90
CC/C(=C(/c1ccc(OCCN2CCC(CN3CCN(c4ccc5c(c4)CN([C@H]4CCC(=O)NC4=O)C5=O)CC3)CC2)cc1)c1ccc(B(O)O)cc1)c1ccccc1 [Compound 73, (S,Z)-(4-(1-(4-(2-(4-((4-(2-(2,6-dioxopiperidin-3-yl)-1-oxoisoindolin-5-yl)piperazin-1-yl)methyl)piperidin-1-yl)ethoxy)phenyl)-2-phenylbut-1-en-1-yl)phenyl)boronic acid]	> 8.00	> 8.00	< 0.01	> 90
CC/C(=C(/c1ccc(OCCN2CCC(CN3CCN(c4ccc5c(c4)CN([C@@H]4CCC(=O)NC4=O)C5=O)CC3)CC2)cc1)c1ccc(B(O)O)cc1)c1ccccc1 [Compound 74, (R,Z)-(4-(1-(4-(2-(4-((4-(2-(2,6-dioxopiperidin-3-yl)-1-oxoisoindolin-5-yl)piperazin-1-yl)methyl)piperidin-1-yl)ethoxy)phenyl)-2-phenylbut-1-en-1-yl)phenyl)boronic acid]	> 8.00	> 8.00	< 0.01	> 90
CC/C(=C(\c1ccc(OCCN2CCC(CN3CCN(c4ccc5c(c4)CN([C@H]4CCC(=O)NC4=O)C5=O)CC3)CC2)cc1)c1ccc(B(O)O)cc1)c1ccccc1 [Compound 75, (S,E)-(4-(1-(4-(2-(4-((4-(2-(2,6-dioxopiperidin-3-yl)-1-oxoisoindolin-5-yl)piperazin-1-yl)methyl)piperidin-1-yl)ethoxy)phenyl)-2-phenylbut-1-en-1-yl)phenyl)boronic acid]	> 8.00	> 8.00	< 0.01	> 90
CC/C(=C(\c1ccc(OCCN2CCC(CN3CCN(c4ccc5c(c4)CN([C@@H]4CCC(=O)NC4=O)C5=O)CC3)CC2)cc1)c1ccc(B(O)O)cc1)c1ccccc1 [Compound 76]	> 8.00	> 8.00	< 0.01	> 90
CC/C(=C(\c1ccc(O)cc1)c1ccc(OCCN2CCN(C(=O)N3CCN(c4ccc5c(c4)CN(C4CCC(=O)NC4=O)C5=O)CC3)CC2)cc1)c1ccccc1 (stereo not shown) [Compound 77]	> 8.00	> 8.00	< 0.01	> 90
CC/C(=C(\c1ccc(O)cc1)c1ccc(OCCN2CCN(C(=O)N3CCN(c4ccc5c(c4)CN([C@H]4CCC(=O)NC4=O)C5=O)CC3)CC2)cc1)c1ccccc1 [Compound 78, (S,Z)-3-(5-(4-(4-(2-(4-(1-(4-hydroxyphenyl)-2-phenylbut-1-en-1-yl)phenoxy)ethyl)piperazine-1-carbonyl)piperazin-1-yl)-1-oxoisoindolin-2-yl)piperidine-2,6-dione]	> 8.00	> 8.00	< 0.01	> 90
CC/C(=C(\c1ccc(O)cc1)c1ccc(OCCN2CCN(C(=O)N3CCN(c4ccc5c(c4)CN([C@@H]4CCC(=O)NC4=O)C5=O)CC3)CC2)cc1)c1ccccc1 [Compound 79, (R,Z)-3-(5-(4-(4-(2-(4-(1-(4-hydroxyphenyl)-2-phenylbut-1-en-1-yl)phenoxy)ethyl)piperazine-1-carbonyl)piperazin-1-yl)-1-oxoisoindolin-2-yl)piperidine-2,6-dione]	> 8.00	> 8.00	< 0.01	> 90
